The target of assay [1] is Ribosomal protein S6 kinase alpha-1 (Homo sapiens) (UniProt Q15418). The assay is described as follows: Inhibition of recombinant full length human RSK1 assessed as residual activity at 10 uM using KKKNRTLSVA as substrate incubated for 40 mins in presence of [gamma-33P]ATP at Km concentration by radiometric assay relative to control.
Assay [2] has as its target CDK2/Cyclin A2 (Homo sapiens) (UniProt P24941+P20248). The assay is described as follows: Inhibition of human full length recombinant CDK2/cyclinA assessed as residual activity at 10 uM using Histone H1 as substrate incubated for 40 mins in presence of [gamma-33P]ATP at Km concentration by radiometric assay relative to control. Type of assay: protein-complex assay.
Assay [3] has as its system RAF proto-oncogene serine/threonine-protein kinase (Homo sapiens), P04049 [Y340D,Y341D]. As to the kind of experiment: Inhibition of recombinant human c-RAF Y340D/Y341D double mutant (360 to end residues) assessed as residual activity at 10 uM using inactive MEK1 as substrate incubated for 40 mins in presence of [gamma-33P]ATP at Km concentration by radiometric assay relative to control.

For assay [4], the target named is Tyrosine-protein kinase Fyn (Homo sapiens) (UniProt P06241). The assay is described as follows: Inhibition of human full length recombinant FYN assessed as residual activity at 10 uM using KVEKIGEGTYGVV as substrate incubated for 40 mins in presence of [gamma-33P]ATP at Km concentration by radiometric assay relative to control.
Assay [5] deals with Tyrosine-protein kinase ABL1 (Homo sapiens) (UniProt P00519). The assay is described as follows: Inhibition of human recombinant ABL (27 to end residues) assessed as residual activity at 10 uM using EAIYAAPFAKKK as substrate incubated for 40 mins in presence of [gamma-33P]ATP at Km concentration by radiometric assay relative to control.
The target in assay [6] is 5'-AMP-activated protein kinase catalytic subunit alpha-1 (Homo sapiens) (UniProt Q13131). The assay is described as follows: Inhibition of human full length recombinant AMPKalpha1 assessed as residual activity at 10 uM using AMARAASAAALAR as substrate incubated for 40 mins in presence of [gamma-33P]ATP at Km concentration by radiometric assay relative to control.
Assay [7] addresses Serine/threonine-protein kinase Nek2 (Homo sapiens) (UniProt P51955). As to the kind of experiment: Inhibition of full length recombinant human NEK2 assessed as residual activity at 10 uM using myelin basic protein as substrate incubated for 40 mins in presence of [gamma-33P]ATP at Km concentration by radiometric assay relative to control.

The source of these data is ChEMBL document CHEMBL4396947, “Synthesis and characterization of novel isoform-selective IP6K1 inhibitors” (Bioorg Med Chem Lett, 2019).

Chain of Tyrosine-protein kinase Fyn (Homo sapiens) (P06241 2-537 limits assumed): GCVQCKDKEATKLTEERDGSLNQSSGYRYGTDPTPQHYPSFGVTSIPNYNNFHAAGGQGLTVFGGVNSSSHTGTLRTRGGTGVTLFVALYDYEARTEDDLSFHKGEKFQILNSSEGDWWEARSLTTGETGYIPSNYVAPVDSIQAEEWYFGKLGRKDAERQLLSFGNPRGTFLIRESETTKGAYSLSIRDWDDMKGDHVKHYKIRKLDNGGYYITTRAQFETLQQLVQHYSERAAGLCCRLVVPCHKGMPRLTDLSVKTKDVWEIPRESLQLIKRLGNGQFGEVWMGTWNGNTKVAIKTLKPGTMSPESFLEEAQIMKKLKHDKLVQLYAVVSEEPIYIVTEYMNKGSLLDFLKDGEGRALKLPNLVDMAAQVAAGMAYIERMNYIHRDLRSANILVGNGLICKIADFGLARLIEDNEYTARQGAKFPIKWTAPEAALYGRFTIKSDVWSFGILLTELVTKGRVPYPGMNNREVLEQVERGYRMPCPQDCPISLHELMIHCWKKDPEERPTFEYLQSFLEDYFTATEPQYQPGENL
Chain of Tyrosine-protein kinase ABL1 (Homo sapiens) (P00519 whole entry): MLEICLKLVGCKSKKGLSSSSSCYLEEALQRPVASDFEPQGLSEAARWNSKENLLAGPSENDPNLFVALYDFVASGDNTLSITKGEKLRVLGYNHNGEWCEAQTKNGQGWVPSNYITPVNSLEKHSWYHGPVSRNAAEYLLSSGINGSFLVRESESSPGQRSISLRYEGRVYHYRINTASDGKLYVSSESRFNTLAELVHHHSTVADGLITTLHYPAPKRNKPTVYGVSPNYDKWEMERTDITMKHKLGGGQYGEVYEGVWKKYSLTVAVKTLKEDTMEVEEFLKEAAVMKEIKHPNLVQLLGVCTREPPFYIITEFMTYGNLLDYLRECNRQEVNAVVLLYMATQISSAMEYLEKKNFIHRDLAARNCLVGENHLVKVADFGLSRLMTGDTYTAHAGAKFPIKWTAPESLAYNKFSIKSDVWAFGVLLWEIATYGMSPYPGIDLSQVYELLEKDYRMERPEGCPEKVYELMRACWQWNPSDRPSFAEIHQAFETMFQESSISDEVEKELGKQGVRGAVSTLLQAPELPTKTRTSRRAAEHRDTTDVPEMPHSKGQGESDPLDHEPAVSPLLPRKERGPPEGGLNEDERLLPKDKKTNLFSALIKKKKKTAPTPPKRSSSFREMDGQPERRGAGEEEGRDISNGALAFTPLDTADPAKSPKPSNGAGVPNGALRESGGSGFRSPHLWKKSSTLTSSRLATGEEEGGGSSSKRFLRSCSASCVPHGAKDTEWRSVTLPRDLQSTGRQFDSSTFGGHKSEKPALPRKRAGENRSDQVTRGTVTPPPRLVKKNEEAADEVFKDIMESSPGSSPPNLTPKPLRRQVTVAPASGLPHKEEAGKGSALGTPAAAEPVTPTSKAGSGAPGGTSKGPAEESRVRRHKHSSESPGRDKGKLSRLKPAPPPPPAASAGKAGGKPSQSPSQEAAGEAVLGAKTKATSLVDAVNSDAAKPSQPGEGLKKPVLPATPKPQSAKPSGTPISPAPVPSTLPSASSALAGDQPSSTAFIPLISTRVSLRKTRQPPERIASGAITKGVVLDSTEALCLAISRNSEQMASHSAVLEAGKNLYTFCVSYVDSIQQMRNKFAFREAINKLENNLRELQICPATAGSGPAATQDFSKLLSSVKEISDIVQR
Chain of Serine/threonine-protein kinase Nek2 (Homo sapiens) (P51955 whole entry): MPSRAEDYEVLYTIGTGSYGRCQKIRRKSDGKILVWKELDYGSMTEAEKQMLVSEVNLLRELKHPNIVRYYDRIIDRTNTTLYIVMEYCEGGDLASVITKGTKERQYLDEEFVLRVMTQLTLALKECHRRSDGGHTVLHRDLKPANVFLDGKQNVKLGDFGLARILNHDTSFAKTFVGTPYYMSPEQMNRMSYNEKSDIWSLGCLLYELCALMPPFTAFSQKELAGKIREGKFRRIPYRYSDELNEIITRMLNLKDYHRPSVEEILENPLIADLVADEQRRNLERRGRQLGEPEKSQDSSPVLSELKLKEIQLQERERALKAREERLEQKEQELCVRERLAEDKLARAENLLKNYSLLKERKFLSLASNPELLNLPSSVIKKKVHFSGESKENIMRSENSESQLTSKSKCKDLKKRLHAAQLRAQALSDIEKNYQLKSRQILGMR
Chain of 5'-AMP-activated protein kinase catalytic subunit alpha-1 (Homo sapiens) (Q13131 whole entry, looked up): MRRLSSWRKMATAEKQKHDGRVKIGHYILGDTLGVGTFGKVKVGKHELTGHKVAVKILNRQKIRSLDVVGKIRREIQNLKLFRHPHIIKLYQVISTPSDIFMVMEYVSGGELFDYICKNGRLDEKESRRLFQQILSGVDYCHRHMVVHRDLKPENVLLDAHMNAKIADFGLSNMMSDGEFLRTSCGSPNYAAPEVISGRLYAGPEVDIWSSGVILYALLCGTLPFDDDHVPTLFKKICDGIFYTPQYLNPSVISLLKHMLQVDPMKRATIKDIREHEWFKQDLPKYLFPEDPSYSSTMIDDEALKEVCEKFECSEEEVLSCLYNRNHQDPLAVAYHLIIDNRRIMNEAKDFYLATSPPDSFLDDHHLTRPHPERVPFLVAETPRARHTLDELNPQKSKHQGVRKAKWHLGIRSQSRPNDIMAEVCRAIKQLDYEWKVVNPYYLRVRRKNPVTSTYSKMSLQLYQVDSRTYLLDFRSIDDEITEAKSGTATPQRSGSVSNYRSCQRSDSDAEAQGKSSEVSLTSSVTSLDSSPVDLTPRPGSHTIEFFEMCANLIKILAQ
Chain of Ribosomal protein S6 kinase alpha-1 (Homo sapiens) (Q15418 whole entry): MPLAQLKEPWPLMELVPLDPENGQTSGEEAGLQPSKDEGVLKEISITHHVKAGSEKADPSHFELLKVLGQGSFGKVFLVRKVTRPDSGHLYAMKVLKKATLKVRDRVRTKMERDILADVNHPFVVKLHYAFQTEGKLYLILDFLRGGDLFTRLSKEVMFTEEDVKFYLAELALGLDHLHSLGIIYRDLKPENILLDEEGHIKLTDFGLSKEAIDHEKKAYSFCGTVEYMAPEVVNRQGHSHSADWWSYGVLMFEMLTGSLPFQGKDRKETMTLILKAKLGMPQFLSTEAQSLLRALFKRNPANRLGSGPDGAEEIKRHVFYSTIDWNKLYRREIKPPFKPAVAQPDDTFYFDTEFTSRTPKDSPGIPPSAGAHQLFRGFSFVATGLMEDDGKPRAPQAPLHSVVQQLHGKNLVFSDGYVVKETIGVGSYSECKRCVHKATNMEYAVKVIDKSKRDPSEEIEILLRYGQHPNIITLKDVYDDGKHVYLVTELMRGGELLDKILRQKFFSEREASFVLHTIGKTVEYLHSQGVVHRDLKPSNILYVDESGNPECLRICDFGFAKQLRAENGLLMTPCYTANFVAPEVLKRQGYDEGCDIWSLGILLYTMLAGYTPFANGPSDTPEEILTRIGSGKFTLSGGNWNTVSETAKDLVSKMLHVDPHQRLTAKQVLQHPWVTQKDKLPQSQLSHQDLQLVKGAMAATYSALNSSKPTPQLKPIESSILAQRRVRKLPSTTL

In the case of `COc1ccc2c(CCNc3nc(NCc4ccc(=O)[nH]c4)c4nc[nH]c4n3)c[nH]c2c1`, the Activity in assay [1] is 45%; in assay [2] it was 90%; in assay [3] it was -3%; in assay [4], 84%; in assay [5] it was 90%; in assay [6] it was 97%. In addition, in assay [7], the Activity worked out at 87%.
